Results reported in PubChem BioAssay AID179 (DTP/NCI, 2004).
Activity calls are given as the source filed them.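 The calls were made as follows: active = compounds giving half or more protection of infected cells from virus-caused growth loss, again on retest; inactive = the rest.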

Tested on: CEM cells HIV-1 protection, formazan growth assay
Assay: NCI AIDS Antiviral Assay
Conditions: for IC50: measured here: growth of uninfected CEM cells
In short: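 Five concentrations of each compound were applied to infected and uninfected human CEM cells. Protection from HIV-1 was judged from growth measured with a soluble formazan assay.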

Row | Structure (SMILES) | EC50 [µM] | IC50 [µM] | outcome
1 | Cn1cc2ccccc2c1-c1nc(F)nc(Oc2ccc3c(c2)CC[C@@H]2C3CC[C@]3(C)C(O)CCC23)n1 (stereo not given in full) | > 5.5 | > 5.5 | –
2 | COc1cc2c3c(c1)nnn3C(=O)CCS2 | > 200 | > 200 | –
3 | Cc1cc(O)c2c(c1O)C(=O)C13C(=C2O)C(=O)C2C(O)C1C1C(O)C3C(=O)C3=C(O)c4c(O)cc(C)c(O)c4C(=O)C321 (stereo not given) | > 45.7 | 0.0977 | –
4 | CCOC(=O)CNC(=O)CNC(=O)CNC(=O)CNNc1c(OCc2ccccc2)c(=O)c1=O | > 200 | > 200 | –
5 | CCOC(=O)NP(=O)(Nc1ccc(C)cc1)Nc1ccc(C)cc1 | > 200 | > 200 | –
6 | Cc1c2cc(Br)ccc2nc(CCl)[n+]1[O-] | > 20 | 0.977 | –
7 | Cc1c2ccccc2nc(CSc2nc3ccccc3s2)[n+]1[O-] | 64.6 | > 200 | –
8 | NC(=O)C(N)(c1ccccc1)c1ccccc1 | – | – | inactive
9 | O=[N+]([O-])c1ncc(N(CCO)CCO)s1 | > 200 | 85.1 | –
10 | Cc1ccc(N=N/C(=N/NC(=O)c2ccccc2)c2ccc(N(CCC#N)CCC#N)cc2C)cc1 | > 200 | 14.8 | –
11 | Nc1nn2cc3c(nc2c1N=Nc1ccc(Cl)cc1)CCC3 | > 151 | > 100 | –
12 | CCSC(CCC(NC(C)=O)C(=O)O)SCC (stereo not given) | > 200 | > 200 | –
13 | CC1OC(OC2C(O)C(O)C(N=C(N)N)C(O)C2N=C(N)N)C(OC2OC(CO)C(O)C(O)C2N(C)N=O)C1(O)C=O (stereo not given) | – | – | inactive
14 | CC(C)(CN1CCCCC1)C(=O)CC(SCCS(=O)(=O)O)c1ccc(Br)cc1 (stereo not given) | > 427 | 1.74 | –
15 | CC(C)C(=O)N[C@@H](C)C(=O)N(Cc1ccc2ccccc2c1)N=O | – | – | inactive
16 | COC(=O)[C@H]1CO[C@@H](C(C)(C)C)N1C(=O)N1C=CC(=O)C[C@@H]1C | > 200 | > 200 | –
17 | CC#CC(O)(C(=O)OC1CC(C)N(C)C(C)(C)C1)C1CCCC1 (stereo not given) | > 200 | > 200 | –
18 | CC(C)CCCC(C)[C@H]1CC[C@H]2[C@@H]3CC[C@H]4C[C@@H](CCC=C(c5cc(Cl)c(OCc6ccccc6B6OC(C)(C)C(C)(C)O6)c(C(=O)OCc6ccccc6B6OC(C)(C)C(C)(C)O6)c5)c5cc(Cl)c(OCc6ccccc6B6OC(C)(C)C(C)(C)O6)c(C(=O)OCc6ccccc6B6OC(C)(C)C(C)(C)O6)c5)CC[C@]4(C)[C@H]3CC[C@]12C (stereo not given in full) | > 126 | > 126 | –
19 | c1cc(C2N3CCCN2CC3)ccn1 (stereo not given) | – | – | inactive
20 | CSc1ncnc2c1C[P+](Cc1ccccc1)(c1ccccc1)CC2 (stereo not given) | > 562 | > 562 | –
21 | CC(=O)OCC1OC(Nc2[nH]c(=O)n(C)c(=O)c2N=O)C(OC(C)=O)C(OC(C)=O)C1OC(C)=O (stereo not given) | > 200 | > 200 | –
22 | Cn1c(-c2cccs2)cc(-c2cccs2)c1-c1ccco1 | > 200 | 30.2 | –

Row | Structure (SMILES) | EC50 [µM] | IC50 [µM] | outcome
23 | CCN1CN(c2ccccc2)C2(CCN(CC3COc4ccccc4O3)CC2)C1=O (stereo not given) | > 200 | 115 | –
24 | COC(=O)c1ccc(Cc2cc(Cc3ccc(C(=O)OC)cc3)cc(Cc3ccc(C(=O)OC)cc3)c2)cc1 | > 25.1 | > 25.1 | –
25 | Cc1ccc2nc(N)[nH]c(=O)c2c1Sc1ccncc1 | > 363 | 1.35 | –
26 | FC(F)(F)c1cc(C2SCc3nc4ccccc4n32)cc(C(F)(F)F)c1 (stereo not given) | > 41.7 | 7.08 | –
27 | O=Cc1ccc2c(c1I)OCO2 | > 67.6 | 38.9 | –
28 | CN(C)C(=O)c1cccc(COc2ccc(N3C(N)=NC(N)=NC3(C)C)cc2Cl)c1 | > 468 | 0.148 | –
29 | COc1cc(C)c(O)c(C(=O)O)c1 | – | – | inactive
30 | N#CC12C(=N)CCC1C1CC2C2C3C=CC(C3)C12 (stereo not given) | > 200 | > 200 | –
31 | CN(C)CCNC(=O)c1ccc(Cl)c2c(Nc3ccc(S(=O)(=O)N=C(N)N)cc3)c3ccccc3nc12 | – | – | inactive
32 | NC(=O)c1sc2nc3ccccc3n2c1N | > 200 | > 200 | –
33 | CCCCCCCCCCCCCCCCOC[C@@H](COC(c1ccccc1)(c1ccccc1)c1ccccc1)O[P+](=S)OC (stereo not given in full) | > 200 | 22.4 | –
34 | COc1cc(CNC2c3cc4c(cc3C(c3cc(OC)c(OC)c(OC)c3)[C@H]3C(=O)OCC23)OCO4)cc(OC)c1OC (stereo not given in full) | – | – | inactive
35 | CCCCCCCCCCCO/N=C\c1c2c(O)c3c(O)c(C)c4c(c3c1O)C(=O)C(C)(O/C=C\C(OC)C(C)C(OC(C)=O)C(C)C(O)C(C)C(O)C(C)/C=C\C=C(\C)C(=O)N2)O4 (stereo not given) | > 200 | 3.02 | –
36 | COc1ccc(/C=C2\SC(=S)NC2=O)cc1 | > 28.8 | > 28.8 | –
37 | N#CC1(C#N)C(c2ccc(C3C(C#N)(C#N)C3(C#N)C#N)cc2)C1(C#N)C#N | – | – | inactive
38 | O=C(N=Nc1ccc(Br)cc1)NNc1ccc(Br)cc1 | > 200 | 12.9 | –
39 | CC(=O)Nc1ccc(CNc2cc(=O)[nH]c(=O)[nH]2)cc1 | > 200 | > 200 | –
40 | O=C1C=C(c2ccccc2)Sc2ccccc2N1 | > 89.1 | 47.9 | –
41 | CN(C)CCNc1c([N+](=O)[O-])sc2ccc(Cl)cc12 | > 200 | 16.6 | –
42 | NC(N)=N/N=C\c1c(-c2ccccc2)nc2sccn12 | > 200 | 12 | –
43 | OC1=C(O)c2ccccc21 | > 1860 | > 1860 | –
44 | CCCCCCCCCn1ccnc1NCCCCCCNc1nccn1CCCCCCCCC | > 7.24 | 3.63 | –

Row | Structure (SMILES) | EC50 [µM] | IC50 [µM] | outcome
45 | CSc1n[nH]c(NC(=O)c2cccc(C(F)(F)F)c2)n1 | > 44.7 | > 44.7 | –
46 | CC12NC(=O)NC(=O)N1CCS2 (stereo not given) | – | – | inactive
47 | CCOC(=O)/C=C\SCCC(=O)OC | > 1150 | 741 | –
48 | CCCCCCCCCCN=C(N)CSSCC(N)=NCCCCCCCCCC | > 200 | 16.6 | –
49 | O=P(O)(O)C(N=C(Nc1ccccc1)Nc1ccccc1)P(=O)(O)O | > 100 | > 100 | –
50 | N#C/C(=C\c1ccc([N+](=O)[O-])cc1)c1ccccc1 | > 11 | > 11 | –
51 | Cc1ccc(C(=O)Nc2ccc(S(=O)(=O)O)c3cc(S(=O)(=O)O)cc(S(=O)(=O)O)c23)cc1N | > 200 | > 200 | –
52 | COc1c(Br)cc(Br)c(OC)c1-c1[nH]c(Br)c(Br)c1Br | > 16.6 | > 16.6 | –
53 | COc1nc2n[nH]nc2c(=O)[nH]1 | – | – | inactive
54 | Cc1ccccc1NC(=O)CSc1nnc(Cc2ccccc2)o1 | > 263 | 234 | –
55 | C/C(=N\NC(=S)Nc1ccc(S(N)(=O)=O)cc1)c1ccccn1 | > 145 | 8.51 | –
56 | c1ccc(SC2=C(Sc3ccccc3)CC2)cc1 | > 200 | 89.1 | –
57 | Clc1ccc(C=NC23CC4CC(CC(C4)C2)C3)c(Cl)c1 | – | – | inactive
58 | c1ccc(SCCC(Sc2ccccc2)Sc2ccccc2)cc1 | > 200 | 93.3 | –
59 | O=C(CSC(=S)N1CCOCC1)Nc1nc2c(s1)CCCC2 | > 72.4 | 61.7 | –
60 | O=C(CCl)Nc1ccccc1-c1ccccc1NC(=O)CCl | – | – | inactive
61 | O=S(=O)(/C=C/C(=C/c1ccccc1)S(=O)(=O)c1ccccc1)c1ccccc1 | – | – | inactive
62 | CCOC(=O)CNC(=O)N(CC)C12CC3CC(CC(C3)C1)C2 | > 200 | 129 | –
63 | O=[n+]1c2c(n([O-])c3ccccc31)-c1cccc3cccc-2c13 | > 200 | 129 | –
64 | CN(C)C(=S)N/N=C\C(=N/NC(=S)N(C)C)c1ccccc1 | > 200 | 12.9 | –
